Test results from patent US7276510B2, “HIV replication inhibitors” (Janssen Pharmaceutica, Inc., priority 2000, dated 2007).
Counter-ions that a name gives are not always drawn. Like-named read-outs stand apart in the source and are kept apart here.

Legend:
[1] = Cytotoxicity in mock-infected MT-4 cells (MTT); format: cell-based; conditions: human, OD 540 nm
Method: (§1) A rapid, sensitive and automated assay procedure was used for the in vitro evaluation of anti-HIV agents. An […] T4-cell line, MT-4, which was previously shown (Koyanagi et al., Int. J. Cancer, 36, 445-451, 1985) to be highly susceptible to and permissive for HIV infection, served as the target cell line. Inhibition of the HIV-induced cytopathic effect was used as the end point. The viability of both HIV- and mock-infected cells was assessed spectrophotometrically via the in situ reduction of 3-(4,5-dimethylthiazol-2-yl)-2,5-diphenyltetrazolium bromide (MTT). […] The percent protection achieved by the compound in HIV-infected cells was calculated by the following formula:
(§2) [formula] whereby (ODT)HIV is the optical density measured with a given concentration of the test compound in HIV-infected cells; (ODC)HIV is the optical density measured for the control untreated HIV-infected cells; (ODC)MOCK is the optical density measured for the control untreated mock-infected cells; all optical density values were determined at 540 nm. […] The ratio of CC50 to IC50 was defined as the selectivity index (SI).

HIV-infected MT-4 cells = assay: Inhibition of the HIV-induced cytopathic effect in MT-4 cells (MTT); format: cell-based; conditions: for SI (selectivity index, ratio of CC50 to IC50): CC50/IC50 in MT-4 cells; for IC50: HIV-infected MT-4 cells, MTT, OD 540 nm
Method: as §1, §2

mock-infected MT-4 cells = assay: Cytotoxicity in mock-infected MT-4 cells (MTT); format: cell-based; conditions: read-out: CC50 (50% cytotoxic concentration), OD 540 nm
Method: as §1, §2

[2] = Human immunodeficiency virus 1, MT4, read-out: IC50 (50% inhibitory concentration; dose achieving 50% protection)
[3] = read-out: IC50 (50% inhibitory concentration; dose achieving 50% protection)

melting point	Compound	CC50 [1]	SI (selectivity index, ratio of CC50 to IC50) (HIV-infected MT-4 cells)	IC50 (HIV-infected MT-4 cells; [2])	CC50 (mock-infected MT-4 cells)	IC50 (HIV-infected MT-4 cells; [3])
198 to 199 °C	COCc1nc(Nc2ccc(C#N)cc2)nc(Oc2c(C)cc(C#N)cc2C)c1Br [Compound 12, 4-[[[5-bromo-4-(4-cyano-2,6-dimethylphenoxy)-6-methoxymethyl]-2-pyrimidinyl]amino]benzonitrile]	> 100000 nM	>25000	4 nM		
302 to 304 °C	N#Cc1ccc(Nc2nc(Cc3c(Cl)cccc3Cl)nc(-n3[nH]nnc3=N)n2)cc1 [Compound 46]					
213 to 214 °C	COCc1cc(Nc2cc(C)c(F)cc2Cl)nc(Nc2ccc(C#N)cc2)n1 [Compound 3]	> 100000 nM	>1996	50.1 nM		
> 300 °C	N#Cc1ccc(Nc2nc(O)nc(Cc3c(Cl)cccc3Cl)n2)cc1 [Compound 10]					
238 to 240 °C	Cc1cc(C#N)cc(C)c1Oc1nc(Nc2ccc(C#N)cc2)nc(CCl)c1Br [Compound 73]					
223 to 224 °C	CNCc1nc(Nc2ccc(C#N)cc2)nc(Oc2c(C)cc(C#N)cc2C)c1Br [Compound 74]					
203 to 204 °C	COCc1cc(Oc2c(C)cc(C#N)cc2C)nc(Nc2ccc(C#N)cc2)n1 [Compound 2]	50100 nM	31621	1.58 nM		
287 to 295 °C	NC(=O)c1ccc(Nc2nc(Cc3c(Cl)cccc3Cl)nc(C(N)=O)n2)cc1 [Compound 40]					
184 to 185 °C	CSc1nc(Cc2c(Cl)cccc2Cl)nc(Nc2ccc(C#N)cc2)n1 [Compound 7]	39800 nM	1990	20 nM		
254 to 255 °C	N#Cc1ccc(Nc2nc(S)nc(Cc3c(Cl)cccc3Cl)n2)cc1 [Compound 6]					
219 to 221 °C	C[S+]([O-])c1nc(Cc2c(Cl)cccc2Cl)nc(Nc2ccc(C#N)cc2)n1 (centres unmarked) [Compound 8]					
198 to 199 °C	COc1nc(Cc2c(Cl)cccc2Cl)nc(Nc2ccc(C#N)cc2)n1 [Compound 9]	> 100000 nM	>10000	10 nM		
262 to 263 °C	N#Cc1ccc(Nc2nc(Cc3c(Cl)cccc3Cl)nc(C(N)=O)n2)cc1 [Compound 38]	> 100000 nM	>39841	2.51 nM		
175 °C	N#Cc1ccc(Nc2nc(Cc3c(Cl)cccc3Cl)nc(N3CC(O)CO3)n2)cc1 (centres unmarked) (as salt: trifluoroacetate) [Compound 11]					
278 to 282 °C	N#Cc1ccc(Nc2nc(Cc3c(Cl)cccc3Cl)nc(N3C(=O)CCCC3=O)n2)cc1 [Compound 37]					
199 to 201 °C	N#Cc1ccc(Nc2nc(F)nc(Cc3c(Cl)cccc3Cl)n2)cc1 [Compound 49]					
275 to 285 °C	N#Cc1ccc(Nc2nc(Cc3c(Cl)cccc3Cl)cc(-n3ccnc3)n2)cc1 [Compound 39]					
225 to 227 °C	C=CCONc1nc(Cc2c(Cl)cccc2Cl)nc(Nc2ccc(C#N)cc2)n1 (as salt: trifluoroacetate) [Compound 43]					
243 to 244 °C	N#Cc1ccc(Nc2nc(Cl)nc(Cc3c(Cl)cccc3Cl)n2)cc1 [Compound 1, 4-[[4-chloro-6-[(2,6-dichlorophenyl)methyl]-1,3,5-triazin-2-yl]amino]-benzonitrile]					
260 to 265 °C	Cc1cc(C#N)cc(C)c1Oc1nc(Cl)nc(Nc2ccc(C#N)cc2)n1 [Compound 60]					
249 to 252 °C	Clc1cccc(Cl)c1Cc1nc(Nc2ccc(-c3nnn[nH]3)cc2)nc(-c2nnn[nH]2)n1 [Compound 42]					
221 to 230 °C	N#Cc1ccc(Nc2nc(C#N)nc(Cc3c(Cl)cccc3Cl)n2)cc1 [Compound 5]	10000 nM	501	19.9 nM		
268 to 269 °C	N#Cc1ccc(Nc2nc(Cc3c(Cl)cccc3Cl)nc(N3C(=O)COCC3=O)n2)cc1 [Compound 4]	39800 nM	25197	1.58 nM		
238 to 239 °C	N#Cc1ccc(Nc2nc(Cl)nc(Oc3c(Cl)cc(Cl)cc3Cl)n2)cc1 [Compound 72]					

The remaining lines, values behind:

Compound	melting point	CC50 [1]	SI (selectivity index, ratio of CC50 to IC50) (HIV-infected MT-4 cells)	IC50 (HIV-infected MT-4 cells; [2])	CC50 (mock-infected MT-4 cells)	IC50 (HIV-infected MT-4 cells; [3])
N#Cc1ccc(Nc2nc(Cl)nc(Nc3c(Cl)cc(Cl)cc3Cl)n2)cc1 [Compound 85]					50100 nM	20 nM
Cc1cc(C)c(Nc2nc(Nc3ccc(C#N)cc3)nc(C(N)=O)c2Br)c(C)c1 [Compound 98, 5-bromo-2-[(4-cyanophenyl)amino]-6-[(2,4,6-trimethylphenyl)amino]-4-pyrimidine carboxamide]		50100 nM	15861	3.16 nM		
COc1ccc(Nc2nc(Oc3c(C)cc(C#N)cc3C)cc(C(N)=O)n2)cn1 [Compound 56]		> 100000 nM	1585	63.1 nM		
COC(=O)c1cc(Nc2c(C)cc(C)cc2C)nc(Nc2ccc(C#N)cc2)n1 [Compound 62]		7940 nM	1261	6.3 nM		
N#Cc1ccc(Nc2nc(Cc3c(Cl)cccc3Cl)nc(N3CCC(=O)O3)n2)cc1 [Compound 35]		50100 nM	794	63.1 nM		
CCOc1nc(Cc2c(Cl)cccc2Cl)nc(Nc2ccc(C#N)cc2)n1 [Compound 58]					50100 nM	25.1 nM
Cc1cc(C)c(Nc2nc(Nc3ccc(C#N)cc3)nc(C(N)=O)n2)c(C)c1 [Compound 19, 6-[(4-cyanophenyl)amino]-4-[(2,4,6-trimethylphenyl)amino]-1,3,5-triazine-2-carboxamide]		3980 nM	3162	1.26 nM		
N#Cc1ccc(Nc2nc(Cc3c(Cl)cccc3Cl)nc(N3CC(O)CO3)n2)cc1 (centres unmarked) [Compound 11]		63100 nM	25138	2.51 nM		
COc1ccc(Nc2nc(Oc3c(C)cc(C#N)cc3C)cc(C(=O)N(C)C)n2)cn1 [Compound 65]		79400 nM	1000	79.4 nM		
Cc1cc(C)c(Oc2nc(Nc3ccc(C#N)cc3)nc(C(N)=O)n2)c(C)c1 [Compound 26]					2000 nM	1 nM
CSc1nc(Nc2ccc(C#N)cc2)nc(Nc2c(C)cc(C)cc2C)n1 [Compound 20]					3980 nM	2 nM
N#Cc1ccc(Nc2nc(CO)cc(Oc3c(Br)cc(C#N)cc3Br)n2)cc1 [Compound 14]		> 10000 nM	2500	4 nM		
COCc1cc(Oc2c(Br)cc(C#N)cc2Br)nc(Nc2ccc(C#N)cc2)n1 [Compound 27]					> 10000 nM	10 nM
N#Cc1ccc(Nc2nc(Cc3c(Cl)cccc3Cl)nc(N3C(=O)CCC3=O)n2)cc1 [Compound 48]					> 200000 nM	7.9 nM
C=CCONc1nc(Cc2c(Cl)cccc2Cl)nc(Nc2ccc(C#N)cc2)n1 [Compound 43]		63100 nM	3981	15.8 nM		
Cc1cc(C)c(Nc2cc(C(N)=O)nc(Nc3ccc(C#N)cc3)n2)c(C)c1 [Compound 61, 2-[(4-cyanophenyl)amino]-6-[(2,4,6-trimethylphenyl)amino]-4-pyrimidine carboxamide]		50100 nM	19968	2.51 nM		
Cc1cc(C#N)cc(C)c1Oc1nc(Nc2ccc(C#N)cc2)nc(CO)c1Br [Compound 13, 4-[[[5-bromo-4-(4-cyano-2,6-dimethylphenoxy)-6-hydroxymethyl]-2-pyrimidinyl]amino]benzonitrile]		> 100000 nM	>25000	4 nM		
N#Cc1ccc(Nc2nc(CO)c(Br)c(Oc3c(Br)cc(C#N)cc3Br)n2)cc1 [Compound 16, 4-[[[5-bromo-4-(4-cyano-2,6-dibromophenoxy)-6-hydroxymethyl]2-pyrimidinyl]amino]benzonitrile]		> 100000 nM	>39841	25.1 nM		
Cc1cc(C)c(Nc2cc(C(=O)N(C)C)nc(Nc3ccc(C#N)cc3)n2)c(C)c1 [Compound 66]		31600 nM	19950	1.58 nM		
Cc1cc(C#N)cc(C)c1Nc1cc(C(F)(F)F)nc(Nc2ccc(C#N)cc2)n1 [Compound 33, 4-[[[6-trifluoromethyl-2-(4-cyanophenylamino)]-4-pyrimidinyl]amino]-3,5-dimethylbenzonitrile]	249 to 251 °C	5010 nM	1586	3.16 nM		
CNC(=O)c1cc(Nc2c(C)cc(C)cc2C)nc(Nc2ccc(C#N)cc2)n1 [Compound 63]		39800 nM	7946	5.01 nM		
COC(=O)c1cc(Oc2c(C)cc(C#N)cc2C)nc(Nc2ccc(C#N)cc2)n1 [Compound 71]	258 to 259 °C (dec.)	> 100000 nM	>3984	25.1 nM		
